Assay results as given in patent US20050026911A1, “Benzotriazapinone salts and methods for using same” (priority 2003, published 2005).

Target: T1, gastrin (CCK2) receptors (Rattus norvegicus, UniProt P30553)
T1 construct: The stomach was excised and flushed with ca. 1 ml of unbuffered physiological saline solution; from tissue; host or cells: isolated whole stomach of immature rats (ca. 21 days old)
T1 sequence (P30553 1-452): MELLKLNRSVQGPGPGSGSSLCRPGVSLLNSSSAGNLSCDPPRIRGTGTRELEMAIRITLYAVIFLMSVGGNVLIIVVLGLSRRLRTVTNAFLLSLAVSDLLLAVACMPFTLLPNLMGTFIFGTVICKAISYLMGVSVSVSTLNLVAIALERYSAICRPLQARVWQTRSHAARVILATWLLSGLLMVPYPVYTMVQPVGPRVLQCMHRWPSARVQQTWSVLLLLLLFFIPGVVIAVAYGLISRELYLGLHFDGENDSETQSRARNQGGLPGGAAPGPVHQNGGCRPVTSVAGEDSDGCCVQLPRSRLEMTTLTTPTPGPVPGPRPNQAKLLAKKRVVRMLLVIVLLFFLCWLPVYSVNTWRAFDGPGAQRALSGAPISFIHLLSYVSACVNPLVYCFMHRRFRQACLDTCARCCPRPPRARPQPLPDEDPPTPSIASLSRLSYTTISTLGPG
Assay: gastrin (CCK2) antagonist activity in an immature rat stomach assay
Details: pentagastrin dose-response curves, acid secretion, read-out: pKB rat stomach (converted)
Outline: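 Pentagastrin dose-response curves were run cumulatively 60 min after drug went into the serosal bath, itself after 120 min stabilisation. Preparation: perfused stomach from rats ca. 21 days old (33-50 g), with unbuffered saline under 100% O2 at 1 ml min^−1 and perfusate pH monitored.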

| Structure (SMILES) | Kb |
| --- | --- |
| CC(C)(C)C(=O)CN1C(=O)N(CC(=O)NCc2cccc(C(=O)O)c2)N=C(C2CCCCC2)c2ccccc21 [Example 45, 3-({2-[5-Cyclohexyl-1-(3,3-dimethyl-2-oxo-butyl)-2-oxo-1,2-dihydro-3H-1,3,4-benzotriazepin-3-yl]-acetylamino}-methyl)-benzoic acid] | 93.3 nM |
| CC(C)(C)C(=O)CN1C(=O)N(CC(=O)Nc2cccc(O)c2)N=C(C2CCCCC2)c2ccccc21 [Example 84, 2-[5-Cyclohexyl-1-(3,3-dimethyl-2-oxo-butyl)-2-oxo-1,2-dihydro-3H-1,3,4-benzotriazepin-3-yl]-N-(3-hydroxy-phenyl)-acetamide] | 27.5 nM |
| CNc1cccc(NC(=O)CN2N=C(c3ccccn3)c3ccccc3N(CC(=O)N3CCCC3)C2=O)c1 [Example 6] | 1050 nM |
| Cc1cccc(NNC(=O)CN2N=C(C3CCCCC3)c3ccccc3N(CC(=O)C(C)(C)C)C2=O)c1 [Example 46, [5-Cyclohexyl-1-(3,3-dimethyl-2-oxo-butyl)-2-oxo-1,2-dihydro-3H-1,3,4-benzotriazepin-3-yl]-acetic acid N′-m-tolyl-hydrazide] | 174 nM |
| O=C(CN1N=C(C2CCCCC2)c2ccccc2N(CC(=O)C2CCCC2)C1=O)Nc1cccc(-c2nc(C(=O)O)co2)c1 [Example 148, 2-(3-{2-[5-Cyclohexyl-1-(2-cyclopentyl-2-oxo-ethyl)-2-oxo-1,2-dihydro-3H-1,3,4-benzotriazepin-3-yl]-acetylamino}-phenyl)-oxazole-4-carboxylic acid] | 3.89 nM |
| O=C(O)CCCc1cccc(NC(=O)CN2N=C(C3CCCCC3)c3ccccc3N(CC(=O)C3CCCC3)C2=O)c1 [Example 159] | 1.26 nM |
| O=C(CN1N=C(C2CCCCC2)c2ccccc2N(CC(=O)C2CCCC2)C1=O)Nc1cccc(-c2nnn[nH]2)c1 [Example 125, 2-[5-Cyclohexyl-1-(2-cyclopentyl-2-oxo-ethyl)-2-oxo-1,2-dihydro-3H-1,3,4-benzotriazepin-3-yl]-N-[3-(2H-tetrazol-5-yl)-phenyl]-acetamide] | 4.37 nM |
| CNc1cc(NC(=O)CN2N=C(C3CCCCC3)c3ccccc3N(CC(=O)C(C)(C)C)C2=O)ccc1OC [Example 105, 2-[5-Cyclohexyl-1-(3,3-dimethyl-2-oxo-butyl)-2-oxo-1,2-dihydro-3H-1,3,4-benzotriazepin-3-yl]-N-(4-methoxy-3-methylamino-phenyl)-acetamide] | 27.5 nM |
| O=C(CN1N=C(C2CCCCC2)c2ccccc2N(CC(=O)C2CCCCC2)C1=O)Nc1cccc(C(=O)O)c1 [Example 79, 3-{2-[5-Cyclohexyl-1-(2-cyclohexyl-2-oxo-ethyl)-2-oxo-1,2-dihydro-3H-1,3,4-benzotriazepin-3-yl]-acetylamino}-benzoic acid] | 2.51 nM |
| CC(C)(C)C(=O)CN1C(=O)N(CC(=O)Nc2ccc3c(c2)N(CC(=O)O)CC3)N=C(C2CCCCC2)c2ccccc21 [Example 34, (6-{2-[5-Cyclohexyl-1-(3,3-dimethyl-2-oxo-butyl)-2-oxo-1,2-dihydro-3H-1,3,4-benzotriazepin-3-yl]-acetylamino}-2,3-dihydro-indol-1-yl)-acetic acid] | 15.8 nM |
| COC(=O)c1coc(-c2cccc(NC(=O)CN3N=C(C4CCCCC4)c4ccccc4N(CC(=O)C(C)(C)C)C3=O)c2)n1 [Example 140, 2-(3-{2-[5-Cyclohexyl-1-(3,3-dimethyl-2-oxo-butyl)-2-oxo-1,2-dihydro-3H-1,3,4-benzotriazepin-3-yl]-acetylamino}-phenyl)-oxazole-4-carboxylic acid methyl ester] | 1.12 nM |
| CNc1cccc(NC(=O)CN2N=C(c3ccccn3)c3ccccc3N(CC(=O)C(C)(C)C)C2=O)c1 [Example 5, 2-[1-(3,3-Dimethyl-2-oxo-butyl)-2-oxo-5-pyridin-2-yl-1,2-dihydro-3H-1,3,4-benzotriazepin-3-yl]-N-(3-methylamino-phenyl)-acetamide] | 240 nM |
| CC(C)(C)C(=O)CN1C(=O)N(CC(=O)Nc2cccc(SCC(=O)O)c2)N=C(C2CCCCC2)c2ccccc21 [Example 38, (3-{2-[5-Cyclohexyl-1-(3,3-dimethyl-2-oxo-butyl)-2-oxo-1,2-dihydro-3H-1,3,4-benzotriazepin-3-yl]-acetylamino}-phenylsulfanyl)-acetic acid] | 6.61 nM |
| CC(C)(C)C(=O)CN1C(=O)N(CC(=O)Nc2cccc(N3CCOCC3)c2)N=C(C2CCCCC2)c2ccccc21 [Example 123, 2-[5-Cyclohexyl-1-(3,3-dimethyl-2-oxo-butyl)-2-oxo-1,2-dihydro-3H-1,3,4-benzotriazepin-3-yl]-N-(3-morpholin-4-yl-phenyl)-acetamide] | 18.2 nM |
| O=C(O)Cc1cccc(NC(=O)CN2N=C(c3ccccn3)c3ccccc3N(CC(=O)C3CCCC3)C2=O)c1 [Example 81] | 72.4 nM |
| O=C(CN1N=C(C2CCCCC2)c2ccccc2N(CC(=O)N2CCOCC2)C1=O)Nc1cccc(C(=O)O)c1 [Example 68, 3-{2-[5-Cyclohexyl-1-(2-morpholin-4-yl-2-oxo-ethyl)-2-oxo-1,2-dihydro-3H-1,3,4-benzotriazepin-3-yl]-acetylamino}-benzoic acid] | 81.3 nM |
| Cc1cc(NC(=O)CN2N=C(C3CCCCC3)c3ccccc3N(CC(=O)C(C)(C)C)C2=O)cc(C(=O)O)c1 [Example 91, 3-{2-[5-Cyclohexyl-1-(3,3-dimethyl-2-oxo-butyl)-2-oxo-1,2-dihydro-3H-1,3,4-benzotriazepin-3-yl]-acetylamino}-5-methyl-benzoic acid] | 40.7 nM |
| O=C(O)CSc1cccc(NC(=O)CN2N=C(C3CCCCC3)c3ccccc3N(CC(=O)C3CCCCC3)C2=O)c1 [Example 100, (3-{2-[5-Cyclohexyl-1-(2-cyclohexyl-2-oxo-ethyl)-2-oxo-1,2-dihydro-3H-1,3,4-benzotriazepin-3-yl]-acetylamino}-phenylsulfanyl)-acetic acid] | 0.575 nM |
| CC(C)(C)C(=O)CN1C(=O)N(CC(=O)Nc2cccc(-c3ccccc3C(=O)O)c2)N=C(C2CCCCC2)c2ccccc21 [Example 154, 3′-{2-[5-Cyclohexyl-1-(3,3-dimethyl-2-oxo-butyl)-2-oxo-1,2-dihydro-3H-1,3,4-benzotriazepin-3-yl]-acetylamino}-biphenyl-2-carboxylic acid] | 3.24 nM |
| CC(C)(C)C(=O)CN1C(=O)N(CC(=O)Nc2cccc(-n3ccnc3)c2)N=C(C2CCCCC2)c2ccccc21 [Example 89, 2-[5-Cyclohexyl-1-(3,3-dimethyl-2-oxo-butyl)-2-oxo-1,2-dihydro-3H-1,3,4-benzotriazepin-3-yl]-N-[3-(1H-imidazol-1-yl)-phenyl]-acetamide] | 871 nM |
| CC(C)(C)C(=O)CN1C(=O)N(CC(=O)Nc2cccc(/C=C/C(=O)O)c2)N=C(C2CCCCC2)c2ccccc21 [Example 60, 3-(3-{2-[5-Cyclohexyl-1-(3,3-dimethyl-2-oxo-butyl)-2-oxo-1,2-dihydro-3H-1,3,4-benzotriazepin-3-yl]-acetylamino}-phenyl)-acrylic acid] | 3.47 nM |
| CC(C)(C)C(=O)CN1C(=O)N(CC(=O)Nc2cccc(CC(=O)O)c2)N=C(C2CCCCC2)c2ccccc21 [Example 29, (3-{2-[5-Cyclohexyl-1-(3,3-dimethyl-2-oxo-butyl)-2-oxo-1,2-dihydro-3H-1,3,4-benzotriazepin-3-yl]-acetylamino}-phenyl)-acetic acid] | 61.7 nM |
